{
  "source": "paper PMC4922798",
  "about": "(Journal of the American Chemical Society, 2015)",
  "target": "CazM (Chaetomium globosum, UniProt A0A0K0MCJ4)",
  "sequence (A0A0K0MCJ4 whole entry)": "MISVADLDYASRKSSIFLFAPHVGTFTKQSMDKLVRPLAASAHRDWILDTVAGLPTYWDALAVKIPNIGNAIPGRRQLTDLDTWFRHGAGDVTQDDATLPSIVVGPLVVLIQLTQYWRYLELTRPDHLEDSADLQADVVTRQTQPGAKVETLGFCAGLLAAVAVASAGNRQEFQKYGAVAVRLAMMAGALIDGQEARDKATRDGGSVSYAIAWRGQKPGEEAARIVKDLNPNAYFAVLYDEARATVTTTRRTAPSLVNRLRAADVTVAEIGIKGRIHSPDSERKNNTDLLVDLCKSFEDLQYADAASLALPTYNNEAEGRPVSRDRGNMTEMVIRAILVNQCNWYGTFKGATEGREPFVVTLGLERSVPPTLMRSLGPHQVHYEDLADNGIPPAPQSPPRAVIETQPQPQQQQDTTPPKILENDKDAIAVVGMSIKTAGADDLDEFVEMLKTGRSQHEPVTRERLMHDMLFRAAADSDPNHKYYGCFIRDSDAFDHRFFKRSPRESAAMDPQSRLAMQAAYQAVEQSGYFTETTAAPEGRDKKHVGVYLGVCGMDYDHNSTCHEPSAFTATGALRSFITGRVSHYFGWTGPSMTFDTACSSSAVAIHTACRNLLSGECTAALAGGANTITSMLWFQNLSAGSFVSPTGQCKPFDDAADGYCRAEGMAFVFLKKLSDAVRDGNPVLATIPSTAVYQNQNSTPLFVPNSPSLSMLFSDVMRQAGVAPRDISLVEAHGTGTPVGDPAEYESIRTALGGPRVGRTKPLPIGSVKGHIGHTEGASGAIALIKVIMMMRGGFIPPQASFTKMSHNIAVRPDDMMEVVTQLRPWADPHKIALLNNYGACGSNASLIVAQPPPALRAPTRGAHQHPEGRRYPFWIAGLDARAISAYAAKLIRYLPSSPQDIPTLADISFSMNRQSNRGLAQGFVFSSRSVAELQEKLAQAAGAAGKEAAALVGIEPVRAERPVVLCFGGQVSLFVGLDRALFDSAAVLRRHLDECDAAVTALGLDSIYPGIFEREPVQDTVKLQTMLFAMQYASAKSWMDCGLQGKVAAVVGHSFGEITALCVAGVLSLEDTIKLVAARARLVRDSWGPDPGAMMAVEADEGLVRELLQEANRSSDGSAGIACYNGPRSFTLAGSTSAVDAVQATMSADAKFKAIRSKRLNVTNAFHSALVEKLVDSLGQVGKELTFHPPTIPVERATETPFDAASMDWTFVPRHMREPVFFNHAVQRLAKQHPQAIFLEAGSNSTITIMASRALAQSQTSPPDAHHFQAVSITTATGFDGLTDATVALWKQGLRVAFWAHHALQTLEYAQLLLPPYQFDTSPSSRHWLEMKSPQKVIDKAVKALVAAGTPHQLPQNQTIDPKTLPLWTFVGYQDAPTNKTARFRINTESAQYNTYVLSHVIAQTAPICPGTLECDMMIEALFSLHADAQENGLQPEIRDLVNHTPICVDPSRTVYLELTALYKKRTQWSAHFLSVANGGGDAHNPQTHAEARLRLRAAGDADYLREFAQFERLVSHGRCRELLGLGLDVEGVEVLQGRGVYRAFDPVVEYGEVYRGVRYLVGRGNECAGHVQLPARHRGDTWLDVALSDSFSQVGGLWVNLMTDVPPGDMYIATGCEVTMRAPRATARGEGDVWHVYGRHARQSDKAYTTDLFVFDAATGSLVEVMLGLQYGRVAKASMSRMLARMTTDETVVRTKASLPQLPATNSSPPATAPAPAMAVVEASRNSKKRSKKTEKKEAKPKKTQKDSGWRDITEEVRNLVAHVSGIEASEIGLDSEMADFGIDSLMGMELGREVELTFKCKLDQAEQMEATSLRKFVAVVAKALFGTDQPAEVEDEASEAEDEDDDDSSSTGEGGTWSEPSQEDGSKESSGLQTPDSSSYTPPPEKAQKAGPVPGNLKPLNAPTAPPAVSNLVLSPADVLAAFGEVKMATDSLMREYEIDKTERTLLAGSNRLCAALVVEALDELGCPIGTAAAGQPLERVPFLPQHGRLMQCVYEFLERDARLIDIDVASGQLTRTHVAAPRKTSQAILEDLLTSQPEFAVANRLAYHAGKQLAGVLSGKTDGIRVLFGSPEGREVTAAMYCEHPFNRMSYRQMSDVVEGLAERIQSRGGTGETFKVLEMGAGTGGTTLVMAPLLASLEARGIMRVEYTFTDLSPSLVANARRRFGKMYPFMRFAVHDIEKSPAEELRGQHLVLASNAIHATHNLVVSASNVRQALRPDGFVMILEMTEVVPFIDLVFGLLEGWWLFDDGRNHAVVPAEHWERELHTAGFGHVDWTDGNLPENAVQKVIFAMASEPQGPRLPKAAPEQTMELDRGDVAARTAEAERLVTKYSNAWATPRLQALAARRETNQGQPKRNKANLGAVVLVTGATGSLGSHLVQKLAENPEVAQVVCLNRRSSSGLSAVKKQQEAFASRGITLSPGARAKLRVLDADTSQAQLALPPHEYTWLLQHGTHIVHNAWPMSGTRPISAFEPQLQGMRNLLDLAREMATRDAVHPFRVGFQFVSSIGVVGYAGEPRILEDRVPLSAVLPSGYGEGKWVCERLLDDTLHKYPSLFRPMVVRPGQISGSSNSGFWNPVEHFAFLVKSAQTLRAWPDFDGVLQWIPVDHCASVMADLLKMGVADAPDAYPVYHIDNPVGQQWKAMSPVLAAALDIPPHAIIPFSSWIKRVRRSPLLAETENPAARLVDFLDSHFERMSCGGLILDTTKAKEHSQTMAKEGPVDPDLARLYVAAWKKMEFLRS",
  "test": "HPLC / LC-MS product analysis",
  "type": "biochemical",
  "conditions": "2 mM 11-SNAC, malonyl-CoA, SAM; pH 7.4, room temperature, 8 h; reductive release",
  "data": [
    {"smiles": "NC(=O)C1=CN([C@@H]2O[C@H](COP(=O)(O)OP(=O)(O)OC[C@H]3O[C@@H](n4cnc5c(N)ncnc54)[C@H](OP(=O)(O)O)[C@@H]3O)[C@@H](O)[C@H]2O)C=CC1", "note": "[NADPH]", "values": [
      {"measurement": "HPLC / LC-MS product analysis", "result": "CazM requires NADPH for the reductive offloading of its polyketide product"}
    ]}
  ]
}
